Reference: US7605227B2, “Melanoma antigen peptide analogues” (MannKind Corporation, priority 2005, dated 2009)
“Also recorded” adds a separate entry of the source. One block for each compound: values may come before it. Square brackets hold non-standard residues; d marks the D form. Ends that are not written are not given here. Nle = CCCC[C@H](N)C(=O)O; Nva = CCC[C@H](N)C(=O)O

Assays:
[1] = test system: T cell line specific for the native epitope (PRAME425-433); test: Cross-reactivity of PRAME425-433 analogs: IFN-gamma from native-epitope-specific T cell line; format: cell-based
Procedure: The analogs listed in FIGS. 26-28 were tested for various properties such as improved affinity and stability of binding, cross-reactivity with the native epitope, and immunogenicity as follows in Examples 40-48. […] The observed affinities of the analogs are reported as % binding (compared to the positive control) and ED50, and stability of binding as half time of dissociation. Cross reactivity with the native epitope was assessed by using the analog peptides to stimulate IFN-gamma secretion from a T cell line specific for the native epitope, essentially as described in Example 6. The data shown in FIGS. 26-28 were generated by stimulating with analog peptide at approximately 0.3 μM. […] In some cases, the reported values are the average of two determinations.

HLA-A*0201 [2] = target: T1, HLA-A*0201 (Homo sapiens, UniProt P04439, D140Y/D185E/D98H/E176V/E277Q/G131W/G231S/I119V/I121R/I166T/I218V/L300P/L318F/N151K/N90K/P208A/P217A/Q86G/Q94H/R138H/R169H/T345S); test: Peptide binding using T2 cells (SSX-2 41-49 analogs); conditions: half maximal binding of wild-type peptide relative to analog; native = 1.0
Text: Thus, at limiting concentrations of peptide, it is a measurement of Kon mostly and at saturation levels of peptide it is a measurement of both Kon and Koff.

[3] = test system: T cell lines against a natural (non-mutated) epitope (SSX-241-49); test: Cross-reactivity and functional avidity: IFN-gamma from T cell lines against natural SSX-2 41-49 epitope; format: cell-based, HHD transgenic mice; conditions: IFN-gamma from T cell line raised against native SSX-2 41-49; native = 1, lower = more active;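 note: peptide analogs tested ex vivo with competent APCs, IFN-gamma in supernatant measured by ELISA, readouts include minimal triggering concentration, peak effect and concentration at peak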
624.38 melanoma cells = test: Plasmid prime, SSX-2 peptide boost, ex vivo cytotoxicity against human tumor cells; format: in vivo, mice; conditions: ex vivo after boost
Procedure: Eight groups of mice (n=4) were immunized with plasmid expressing SSX-241-49 natural epitope by direct inoculation into the inguinal lymph nodes with 25 μg in 25 μl of PBS/each lymph node at day 0, 3, 14 and 17. This was followed by two additional peptide boosts (similar amount) at day 28 and 31, using a negative control peptide (Melan A 26-35 “EAA”), natural peptide or analogs as shown in FIG. 9.

HLA-A*0201 [4] = target: T1, HLA-A*0201; test: iTopia affinity assay (ED50); format: binding; conditions: PRAME425-433 analogs
Text: Avidin-coated microtiter plates containing class I monomer loaded with a so-called placeholder peptide were used to evaluate peptide binding, affinity and off-rate. The monomer-coated plates were supplied as part of the iTopia Epitope Discovery System Kit (Beckman Coulter, Inc., San Diego, Calif., USA). Assay buffers, anti-MHC-FITC mAb and beta2-microglobulin and control peptides were also supplied with the kits.
Plates were read on the fluorometer. Sigmoidal dose response curves were generated using Prism software.

[5] = test system: splenocytes stimulated with native peptide; test: pCTLR2 prime, PRAME peptide boost, ex vivo IFN-gamma ELISA; format: in vivo, HHD transgenic mice; conditions: 2.5 μg peptide boost, 10 μg/ml native peptide, 48 hours
[6] = test system: native epitope coated cells; test: pCTLR2 prime, PRAME peptide boost, in vivo cytotoxicity (CFSE); set-up: species or system HHD transgenic mice
[7] = test system: PRAME425-433-specific T cells; test: pCTLR2 prime, PRAME peptide boost, tetramer/CD8 co-staining; format: in vivo, HHD transgenic mice; conditions: versus boost with negative control peptide
[8] = test system: PRAME+ A2+ 624.38 melanoma cells; test: PRAME immunization, ex vivo cytotoxicity against human tumor cells; format: in vivo, HHD transgenic mice
Procedure: This was followed by two peptide boosts (2.5 μg) at day 28 and 31, with the analog L426Nva L433Nle.

624.38 cells = test: pSEM prime, Tyrosinase peptide boost, ex vivo cytotoxicity against human tumor cells; format: in vivo, HHD transgenic mice
Procedure: HHD transgenic mice (n=4/group) were immunized (according to the general protocol in FIG. 40) with plasmid (pSEM) expressing the Tyrosinase369-377 epitope by direct inoculation into the inguinal lymph nodes of 25 μg of plasmid in 25 μl of PBS per lymph node at day 0, 3, 14 and 17. […] One week after the boost, splenocytes were stimulated ex vivo with the native Tyrosinase369-377 peptide and assayed against ^51Cr-labeled human tumor cells (624.38 cells) at various E:T ratios. […] Together with the preceding example, this observation illustrates the usefulness of complementing more stringent assays (in vivo cytotoxicity and tetramer staining) with more sensitive assays (ex vivo cytotoxicity after in vitro stimulation) to outline potentially useful analogs.

[9] = test system: 51Cr-labeled target cells (T2 cells); test: Plasmid prime, SSX-2 peptide boost, ex vivo 51Cr cytotoxicity against T2 target cells; format: in vivo, mice; conditions: peptide as boost agent after plasmid; 51Cr T2 targets
Procedure: Three groups of mice (n=4) were immunized with a plasmid expressing SSX-241-49 natural epitope by direct inoculation into the inguinal lymph nodes with 25 μg in 25 μl of PBS/each lymph node at day 0, 3, 14 and 17. This was followed by two additional peptide boosts (similar amount) at day 28 and 31. One week after the boost, splenocytes were stimulated ex vivo with SSX-241-49 natural peptide and tested against ^51Cr-labeled target cells (T2 cells) at various E:T ratios (FIG. 8). […] This correlated with the binding and stability parameters determined by ex vivo experimentation.

[10] = test system: target cells coated with natural peptide; test: Plasmid prime, SSX-2 peptide boost, in vivo cytotoxicity (CFSE); set-up: species or system HHD mice; conditions: spleen and blood; targets coated with 20 μg/ml and 1 μg/ml natural peptide
Procedure: Eight groups of mice (n=4) were immunized with plasmid expressing SSX-241-49 natural epitope, by direct inoculation into the inguinal lymph nodes with 25 μg in 25 μl of PBS/each lymph node at day 0, 3, 14 and 17. This was followed by two additional peptide boosts (similar amount) at day 28 and 31, using a negative control peptide (Melan A 26-35 “EAA”), natural peptide or analogs as shown in FIG. 9.
To evaluate the in vivo response against natural peptide, splenocytes were isolated from littermate control HHD mice and incubated with 20 μg/mL or 1 μg/ml of natural peptide for 2 hours. These cells were then stained with CFSE^hi fluorescence (4.0 μM or 1 μM for 15 minutes) and intravenously co-injected into immunized mice with an equal number of control splenocytes stained with CFSE^lo fluorescence (0.4 μM). Eighteen hours later the specific elimination of target cells was measured by removing spleen and PBMC from challenged animals and measuring CFSE fluorescence by flow cytometry. The relative depletion of the populations corresponding to peptide loaded splenocytes was calculated relative to the control (unloaded) population and expressed as % specific lysis. FIGS. 10 (spleen) and 11 (blood) show the in vivo cytotoxicity elicited by the regimens described in FIG. 7.

[11] = test system: target cells coated with wild-type peptide; test: Plasmid prime, NY-ESO-1 peptide boost, in vivo cytotoxicity (CFSE); set-up: species or system HHD mice; conditions: plasmid entrain, peptide amplify; targets coated with wild-type NY-ESO-1 peptide
Procedure: These cells were then stained with CFSE^hi and CFSE^med fluorescence (4.0 μM or 1 μM, respectively, for 15 minutes) and intravenously co-injected into immunized mice with an equal number of control splenocytes stained with CFSE^lo fluorescence (0.4 μM). Eighteen hours later the specific elimination of target cells was measured by removing the spleens and PBMC from challenged animals and measuring CFSE fluorescence by flow cytometry. The relative depletion of the populations corresponding to peptide loaded splenocytes was calculated relative to the control (unloaded) population and expressed as % specific lysis.

[12] = test system: splenocytes stimulated with wild-type peptide NY-ESO-1157-165; test: NY-ESO-1 boost, ex vivo IFN-gamma production by splenocytes (ELISA); format: in vivo, mice; conditions: 10 μM wild-type peptide, 3 and 6 days
Text: Supernatants were harvested and the concentration of IFN-γ measured by ELISA.

Compound: Lys P1 analog: PRAME425-433 analog with Lys for Ser at P1 (KLLQHLIGL)
IFN-γ elicited, % of the native peptide ([1]; analog peptide at approximately 0.3 μM): 40%

Relative affinity (1/RA) (HLA-A*0201 [2]): 1.6
Compound: CC[C@H](C)[C@H](NC(=O)[C@H](Cc1ccc(O)cc1)NC(=O)[C@H](Cc1ccccc1)NC(=O)[C@@H](NC(=O)[C@H](CCCCN)NC(=O)[C@H](CCC(=O)O)NC(=O)[C@H](CO)NC(=O)[C@@H](NC(=O)[C@@H](N)Cc1ccccc1)C(C)C)[C@@H](C)CC)C(=O)O [SSX2 41-49 (K41F, A42V, V49I)]
Cross-reactivity and fct avidity (native to analogs)* [3]: 0.3 | cytotoxicity against human tumor cells, in words (624.38 melanoma cells): increased cytotoxicity against human tumor cells

Compound: S{Nva}LQHLIG{Nle} (S[Nva]LQHLIG[Nle]) [Prame 425-433 (L426Nva, L433Nle)]
affinity (ED50) / binding characteristics relative to native, in words (HLA-A*0201 [4]): similar, somewhat improved binding characteristics | IFN-γ production (cross-reactivity) relative to native, in words ([1]; PRAME425-433 analogs at approximately 0.3 μM): significant level of cross-reactivity | IFN-γ production by splenocytes (ELISA), in words ([5]; listed as L426Nva L433Nle): greater response | IFN-γ production by splenocytes (ELISA), in words ([5]; listed as PRAME425-433 L426Nva L433Nle): significant enhancement of IFN-γ production | in vivo cytotoxicity against native epitope, in words [6]: cytotoxic immunity against native epitope coated cells; also recorded: capable of expanding the immunity against the native epitope | expansion of native epitope-specific T cells (tetramer), in words [7]: significantly higher than in mice primed with plasmid and boosted with the negative control peptide | ex vivo cytotoxicity against A2+ PRAME+ 624.38 cells, in words ([8]; mouse, in vivo): cytotoxic immunity against a human tumor cell line; also recorded: significant cytotoxicity against human tumor cells expressing A2 (624.38) | ex vivo cytotoxicity against A2- 624.28 control cells, in words ([8]; negative control cells): no significant activity

Compound: YVDGTMSQNva (YVDGTMSQ[Nva]) [M370V V377Nva]
ex vivo cytotoxicity against 624.38 cells, in words (624.38 cells): robust cytotoxicity against 624.38 cells

ED50 change relative to native peptide (HLA-A*0201 [4]; printed as reduced / less (lower affinity)): more than 10 fold
Compound: Ala substitution: PRAME425-433 analog with Ala at the PΩ anchor position (SLLQHLIGA; UniProt P78395 425-433, looked up, variant L433A)

Compound: CC[C@H](C)[C@H](NC(=O)[C@H](CCCCN)NC(=O)[C@H](CCC(=O)O)NC(=O)[C@H](CO)NC(=O)[C@@H](NC(=O)[C@@H](N)CCCCN)C(C)C)C(=O)N[C@@H](Cc1ccccc1)C(=O)N[C@@H](Cc1ccc(O)cc1)C(=O)N[C@H](C(=O)O)C(C)C [SSX2 41-49 (A42V)]
Cross-reactivity and fct avidity (native to analogs)* [3]: 0.03 | response against target cells expressing the natural peptide [9]: higher response against target cells expressing the natural peptide | in vivo cytotoxicity (% specific lysis), in words [10]: increased activity relative to the natural peptide | cytotoxicity against human tumor cells, in words (624.38 melanoma cells): increased cytotoxicity against human tumor cells

Compound: L158V C165V: NY-ESO-1 157-165 analog, L158V and C165V (SVLMWITQV; UniProt P78358 157-165, looked up, variant L158V C165V)
in vivo cytotoxicity (% specific lysis), in words [11]: effect in the same range with wild-type peptide or the C165V mutant | IFN-gamma production upon ex vivo re-stimulation, in words [12]: increased amounts of IFN-gamma

Compound: SNvaLMWITQV (S[Nva]LMWITQV) [Nyeso-1 157-165 (L158Nva, C165V))]
in vivo cytotoxicity (% specific lysis), in words [11]: substantial, constant cytotoxicity | IFN-gamma production upon ex vivo re-stimulation, in words [12]: large levels of IFN-gamma more rapidly

Relative affinity (1/RA) (HLA-A*0201 [2]): 1.7
Compound: YASEKIFYV [SSX2 41-49 (K41Y)]
Cross-reactivity and fct avidity (native to analogs)* [3]: 3 | in vivo cytotoxicity (% specific lysis), in words [10]: increased activity relative to the natural peptide

Compound: S157F L158V C165V: NY-ESO-1 157-165 analog, triple mutant (FVLMWITQV; UniProt P78358 157-165, looked up, variant S157F L158V C165V)
IFN-gamma production upon ex vivo re-stimulation, in words [12]: increased amounts of IFN-gamma

Compound: YMDGTMSQV [Tyrosinase 369-377, reference compound]
ex vivo cytotoxicity against 624.38 cells, in words (624.38 cells): robust cytotoxicity against 624.38 cells

Relative affinity (1/RA) (HLA-A*0201 [2]): 1.5
Compound: FASEKIFYV [SSX2 41-49 (K41F)]
Cross-reactivity and fct avidity (native to analogs)* [3]: 0.3 | in vivo cytotoxicity (% specific lysis), in words [10]: increased activity relative to the natural peptide

Compound: S157K L158V C165V: NY-ESO-1 157-165 analog, triple mutant (KVLMWITQV; UniProt P78358 157-165, looked up, variant S157K L158V C165V)
in vivo cytotoxicity (% specific lysis), in words [11]: effect in the same range with wild-type peptide or the C165V mutant

Compound: T{Nva}LQHLIG{Nle} (T[Nva]LQHLIG[Nle]) [S425T L426Nva L433Nle]
IFN-γ production by splenocytes (ELISA), in words [5]: ex vivo cytokine production | in vivo cytotoxicity against native epitope, in words [6]: capable of expanding the immunity against the native epitope | expansion of native epitope-specific T cells (tetramer), in words [7]: significantly higher than in mice primed with plasmid and boosted with the negative control peptide
